What was measured:
[1] = molecular target: T1, DHP Site of the Calcium Channel (Oryctolagus cuniculus, UniProt P07293); test: Binding Assay for Drugs Acting at the DHP Site of the Calcium Channel (3H-nitrendipine displacement, washed rabbit skeletal muscle membranes); conditions: read-out: KI (moles)
T1 construct: Washed rabbit skeletal muscle membranes; from tissue; host or cells: rabbit skeletal muscle, washed membranes (fraction 2-8×)
Description: A. Binding Assay for Drugs Acting at the DHP Site of the Calcium Channel.
The assay was carried out as described by Fairhurst et al., Life Sciences, 32, 1331 (1983). Washed rabbit skeletal muscle membranes (fraction 2-8×) were incubated for 30 minutes at 25° C. in 2 ml final volume of medium containing 12.5 mM HEPES buffer pH 7.4 and 0.5×10^-9 M ^3 H-nitrendipine having a specific activity of approximately 17 Ci/m mol.
The incubation tubes were rapidly chilled in ice and the contents filtered through Whatman GF/B filters on a Millipore manifold, and the filters washed with 2×10 ml ice-cold HEPES buffer. The filters were placed in scintillation counting vials with 8 ml of Cytoscint cocktail, disrupted mechanically by shaking for 30 minutes and counted.
Drugs which interact at the DHP site will reduce this specific binding in a dose-dependent manner. The assays for the compounds of this invention were made with logarithmically spaced concentrations, the data were plotted on a probit-concentration plot, and the IC50 read off. The KI of the drug was calculated by standard techniques.

[2] = test system: spontaneous hypertensive rats (SHR); test: Hypotensive Activity: systolic arterial blood pressure, indirect tail cuff method, oral administration; type: in vivo, rat; conditions: oral 10 m mol/Kg in polyethylene glycol, positive = fall; for Mean Change in Blood Pressure (Pressure before Administration minus pressure after Administration mm Hg) 10 min: 10 min after administration; for Mean Change in Blood Pressure (Pressure before Administration minus pressure after Administration mm Hg) 20 min: 20 min after administration; for Mean Change in Blood Pressure (Pressure before Administration minus pressure after Administration mm Hg) 30 min: 30 min after administration; for Mean Change in Blood Pressure (Pressure before Administration minus pressure after Administration mm Hg) 60 min: 60 min after administration; for Mean Change in Blood Pressure (Pressure before Administration minus pressure after Administration mm Hg) 90 min: 90 min after administration; for Mean Change in Blood Pressure (Pressure before Administration minus pressure after Administration mm Hg) 120 min: 120 min after administration
Description: Systolic arterial blood pressure was measured with the indirect tail cuff method in spontaneous hypertensive rats (SHR). The change in baseline pressure (170-210 mm Hg) was recorded at various time points following oral administration of 10 m mol/Kg of the test compound in polyethylene glycol.

T1 sequence (P07293 whole entry): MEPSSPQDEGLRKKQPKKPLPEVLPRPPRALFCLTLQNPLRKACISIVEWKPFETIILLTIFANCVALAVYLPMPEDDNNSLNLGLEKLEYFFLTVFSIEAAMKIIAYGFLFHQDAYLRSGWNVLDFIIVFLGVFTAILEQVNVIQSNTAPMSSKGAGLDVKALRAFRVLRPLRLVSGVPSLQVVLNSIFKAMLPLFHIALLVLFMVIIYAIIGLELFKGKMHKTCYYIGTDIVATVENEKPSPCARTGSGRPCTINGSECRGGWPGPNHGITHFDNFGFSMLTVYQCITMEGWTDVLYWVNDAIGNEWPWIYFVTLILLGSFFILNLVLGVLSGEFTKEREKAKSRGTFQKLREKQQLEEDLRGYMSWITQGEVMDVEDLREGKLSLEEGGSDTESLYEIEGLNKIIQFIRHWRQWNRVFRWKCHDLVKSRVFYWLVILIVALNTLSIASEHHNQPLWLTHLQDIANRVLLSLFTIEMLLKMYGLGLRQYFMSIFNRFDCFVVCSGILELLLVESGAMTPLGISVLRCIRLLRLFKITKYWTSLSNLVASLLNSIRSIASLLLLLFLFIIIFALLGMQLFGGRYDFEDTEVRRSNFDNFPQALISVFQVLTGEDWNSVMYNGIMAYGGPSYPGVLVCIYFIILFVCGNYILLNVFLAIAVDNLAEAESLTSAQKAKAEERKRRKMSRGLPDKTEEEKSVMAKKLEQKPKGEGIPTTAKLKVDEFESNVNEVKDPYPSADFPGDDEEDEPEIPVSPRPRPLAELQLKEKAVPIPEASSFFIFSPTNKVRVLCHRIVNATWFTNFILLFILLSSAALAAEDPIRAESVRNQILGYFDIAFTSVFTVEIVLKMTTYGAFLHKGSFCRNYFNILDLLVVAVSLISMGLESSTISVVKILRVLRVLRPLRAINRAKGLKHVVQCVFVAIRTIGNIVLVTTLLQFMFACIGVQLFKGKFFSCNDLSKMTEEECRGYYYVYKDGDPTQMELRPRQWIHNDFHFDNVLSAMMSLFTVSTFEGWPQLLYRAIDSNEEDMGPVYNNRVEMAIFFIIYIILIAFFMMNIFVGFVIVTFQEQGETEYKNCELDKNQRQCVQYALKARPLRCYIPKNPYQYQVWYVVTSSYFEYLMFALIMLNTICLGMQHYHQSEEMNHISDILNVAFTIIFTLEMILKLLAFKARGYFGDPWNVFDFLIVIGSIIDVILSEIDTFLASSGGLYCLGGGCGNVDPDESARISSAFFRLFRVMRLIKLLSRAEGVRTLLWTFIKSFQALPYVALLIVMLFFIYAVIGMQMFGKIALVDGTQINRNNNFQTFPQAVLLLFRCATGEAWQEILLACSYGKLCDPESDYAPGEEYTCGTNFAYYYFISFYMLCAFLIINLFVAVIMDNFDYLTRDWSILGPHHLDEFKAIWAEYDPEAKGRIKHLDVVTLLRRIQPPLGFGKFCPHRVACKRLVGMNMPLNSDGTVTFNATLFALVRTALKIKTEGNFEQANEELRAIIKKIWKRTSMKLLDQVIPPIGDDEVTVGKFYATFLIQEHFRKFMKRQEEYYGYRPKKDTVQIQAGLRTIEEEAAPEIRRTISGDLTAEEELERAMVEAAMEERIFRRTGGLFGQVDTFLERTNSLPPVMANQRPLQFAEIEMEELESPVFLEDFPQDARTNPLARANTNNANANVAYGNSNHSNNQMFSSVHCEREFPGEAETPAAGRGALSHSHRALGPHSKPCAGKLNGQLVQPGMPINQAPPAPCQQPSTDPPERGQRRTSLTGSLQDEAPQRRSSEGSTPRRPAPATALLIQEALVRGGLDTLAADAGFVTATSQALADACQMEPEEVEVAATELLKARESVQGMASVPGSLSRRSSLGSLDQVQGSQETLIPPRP

Ki [1] | Compound | Mean Change in Blood Pressure (Pressure before Administration minus pressure after Administration mm Hg) 10 min [2] | Mean Change in Blood Pressure (Pressure before Administration minus pressure after Administration mm Hg) 20 min [2] | Mean Change in Blood Pressure (Pressure before Administration minus pressure after Administration mm Hg) 30 min [2] | Mean Change in Blood Pressure (Pressure before Administration minus pressure after Administration mm Hg) 60 min [2] | Mean Change in Blood Pressure (Pressure before Administration minus pressure after Administration mm Hg) 90 min [2] | Mean Change in Blood Pressure (Pressure before Administration minus pressure after Administration mm Hg) 120 min [2]
1.1 nM | COC(=O)C1=C(C)NC(C)=C(C(=O)OCCN(C)Cc2ccccc2)C1c1cccc([N+](=O)[O-])c1 (stereo not drawn) [Nicardipine, nicardipine, reference compound] |  |  |  |  |  | 
0.7 nM | COC(=O)C1=C(C)NC(C)=C(C(=O)OCCN2C(=O)c3ccccc3C2=O)C1c1cccc([N+](=O)[O-])c1 (stereo not drawn) [Example 2, 2,6-dimethyl-3-(2-phthalimidocarbethoxy)-4-(3-nitrophenyl)-5-carbomethoxy-1,4-dihydropyridine] | 9 mm Hg | 10 mm Hg | 10 mm Hg | 6 mm Hg | 0 mm Hg | 0 mm Hg
20 nM | COC(=O)C1=C(C)NC(C)=C(C(=O)OCCN2Cc3ccccc3C2=O)C1c1cccc([N+](=O)[O-])c1 (stereo not drawn) [Example 7, 2,6-Dimethyl-3-(2-phthalimidinocarbethoxy)-4-(3-nitrophenyl)-5-carbomethoxy-1,4-dihydropyridine] | 14 mm Hg | 19 mm Hg | 10 mm Hg | 10 mm Hg | 20 mm Hg | 19 mm Hg
48 nM | COC(=O)C1=C(C)NC(C)=C(C(=O)OCCN2C(=O)c3ccccc3C2=O)C1c1cccc(C(F)(F)F)c1 (stereo not drawn) [Example 3, 2-6-dimethyl-3-(2-phthalimidocarbethoxy)-4-(3-trifluoromethylphenyl)-5-carbomethoxy-1,4-dihydropyridine] |  |  |  |  |  | 
4.8 nM | COC(=O)C1=C(C)NC(C)=C(C(=O)OCCCN2C(=O)c3ccccc3C2=O)C1c1cccc([N+](=O)[O-])c1 (stereo not drawn) [Example 5] | -5 mm Hg | -14 mm Hg | -10 mm Hg | -6 mm Hg | -6 mm Hg | -5 mm Hg
2.5 nM | CC1=C(C(=O)OCCN2C(=O)c3ccccc3C2=O)C(c2cccc([N+](=O)[O-])c2)C(C(=O)OCCN2C(=O)c3ccccc3C2=O)=C(C)N1 [Example 4, 2,6-dimethyl-3,5-di(2-phthalimidocarbethoxy)-4-(3-nitrophenyl)-1,4-dihydropyridine] | 9 mm Hg | 8 mm Hg | 14 mm Hg | 11 mm Hg | 14 mm Hg | 10 mm Hg
19.7 nM | COC(=O)C1=C(C)NC(C)=C(C(=O)OCCN2C(=O)c3ccccc3C2=O)C1c1cccc(C)c1 (stereo not drawn) [Example 1, 2,6-dimethyl-3-(2-phthalimidocarbethoxy)-4-(3-methylphenyl)-5-carbomethoxy-1,4-dihydropyridine] | 17 mm Hg | 10 mm Hg | 4 mm Hg | -2 mm Hg | 5 mm Hg | -4 mm Hg
3.5 nM | COC(=O)C1=C(C)NC(C)=C(C(=O)OCCN2Cc3ccccc3C2)C1c1cccc([N+](=O)[O-])c1 (stereo not drawn) [Example 8, 2,6-Dimethyl-3-(2-isoindolinylcarbethoxy)-4-(3-nitrophenyl)-5-carbomethoxy-1,4-dihydropyridine] | 36 mm Hg | 30 mm Hg | 32 mm Hg | 16 mm Hg | 4 mm Hg | 2 mm Hg
2.5 nM | CC1=C(C(=O)OCCn2c(C)ccc2C)C(c2cccc([N+](=O)[O-])c2)C(C(=O)OCCn2c(C)ccc2C)=C(C)N1 [Example 12, 2,6-Dimethyl-3,5-(2,5-dimethylpyrrolylcarbethoxy)-4-(3-nitrophenyl)-1,4-dihydropyridine] |  |  |  |  |  | 
1.9 nM | COC(=O)C1=C(C)NC(C)=C(C(=O)OCCCCCCN2C(=O)c3ccccc3C2=O)C1c1cccc([N+](=O)[O-])c1 (stereo not drawn) [Example 6, 2,6-Dimethyl-3-(6-phthalimidocarbohexoxy)-4-(3-nitrophenyl)-5-carbomethoxy-1,4-dihydropyridine] | 18 mm Hg | 10 mm Hg | 12 mm Hg | 14 mm Hg | 2 mm Hg | 0 mm Hg
 | COC(=O)C1=C(C)NC(C)=C(C(=O)OC)C1c1ccccc1[N+](=O)[O-] [Nifedipine, nifedipine, reference compound] | 37 mm Hg | 36 mm Hg | 20 mm Hg | 15 mm Hg | 4 mm Hg | 4 mm Hg
150 nM | COC(=O)C1=C(C)NC(C)=C(C(=O)OCCN2C(=O)CCC2=O)C1c1cccc([N+](=O)[O-])c1 (stereo not drawn) [Example 9, 2,6-Dimethyl-3-(2-succimimidocarbethoxy)-4-(3-nitrophenyl)-5-carbomethoxy-1,4-dihydropyridine] | 36 mm Hg | 10 mm Hg | 5 mm Hg | 3 mm Hg | 19 mm Hg | 11 mm Hg
270 nM | COC(=O)C1=C(C)NC(C)=C(C(=O)OCCN2CCCC2=O)C1c1cccc([N+](=O)[O-])c1 (stereo not drawn) [Example 10, 2,6-Dimethyl-3-[2-(2-oxopyrrolidino)carbethoxy]-4-(3-nitrophenyl)-5-carbomethoxy-1,4-dihydropyridine] | -17 mm Hg | -5 mm Hg | 11 mm Hg | 7 mm Hg | 6 mm Hg | 7 mm Hg

From US4652573A, “Calcium antagonist N-hetero ester 1,4-dihydropyridines” (Nelson Research & Development Co., priority 1985, dated 1987)
